The results in this text go back to patent publication US20070111265A1, “Ligands for mineralocorticoid receptor (MR) and methods for screening for or designing MR ligands” (Van Andel Research Institute, priority 2005, published 2007).

Where two headings read alike, the source gives them in different places.

The target of the test is T1, wild type GR (full-length) (Homo sapiens, UniProt P04150).
T1 sequence (P04150 1-777): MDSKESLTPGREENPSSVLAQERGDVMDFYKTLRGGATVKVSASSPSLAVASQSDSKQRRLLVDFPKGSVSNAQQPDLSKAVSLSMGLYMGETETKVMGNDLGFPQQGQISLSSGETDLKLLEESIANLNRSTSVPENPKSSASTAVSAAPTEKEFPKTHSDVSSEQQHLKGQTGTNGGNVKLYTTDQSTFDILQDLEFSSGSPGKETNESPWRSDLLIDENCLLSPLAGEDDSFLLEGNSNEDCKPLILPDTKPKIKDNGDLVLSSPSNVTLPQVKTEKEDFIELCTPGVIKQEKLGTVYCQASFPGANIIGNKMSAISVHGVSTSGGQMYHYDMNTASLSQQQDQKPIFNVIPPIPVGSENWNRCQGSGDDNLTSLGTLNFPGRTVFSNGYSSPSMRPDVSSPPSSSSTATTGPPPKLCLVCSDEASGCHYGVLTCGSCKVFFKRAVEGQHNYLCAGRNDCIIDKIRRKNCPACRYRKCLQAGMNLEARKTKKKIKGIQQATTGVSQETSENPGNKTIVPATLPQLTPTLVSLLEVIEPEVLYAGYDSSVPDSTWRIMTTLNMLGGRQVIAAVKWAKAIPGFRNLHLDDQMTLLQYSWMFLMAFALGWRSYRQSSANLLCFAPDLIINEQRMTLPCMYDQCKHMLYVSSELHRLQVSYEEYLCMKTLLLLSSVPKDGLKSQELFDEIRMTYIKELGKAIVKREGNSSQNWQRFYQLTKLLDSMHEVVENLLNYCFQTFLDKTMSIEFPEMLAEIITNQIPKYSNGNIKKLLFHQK
Description: MMTV luciferase reporter assay in Cos-7 cells. Type of test: cell-based. Here is the method:
Cos-7 cells were maintained in DMEM containing 10% fetal bovine serum (FBS) and were transiently transfected using Lipofectamine 2000 (Invitrogen). […] Cells were transfected in Opti-MEM with 400 ng of MMTV-Luc reporter plasmid and 400 ng of receptor expression vector (pRS vector) encoding full-length GR and MR respectively (ATCC). […] Luciferase data were normalized to Renilla activity as an internal control.
To validate the role of the key MR pocket residues in hormone recognition, the inventors mutated S843 and L848 to the corresponding GR residues (S843P and L848Q) within the context of the full length wild type receptor. […] We also performed reverse mutations in the full length GR receptor (P637S and Q642L) and tested them in the same MMTV reporter.
Background: A reporter such as luciferase makes a cellular process visible.

Regarding `C[C@]12C[C@H](O)[C@H]3[C@@H](CCC4=CC(=O)CC[C@@]43C)[C@@H]1CC[C@@H]2C(=O)CO` [corticosterone], the EC50 by setting is: (Cos-7, MMTV-Luc, read-out: EC50, activation of wild type GR) ~20 nM; (summary of FIG. 5 dose-response, read-out: affinity to GR (shown in FIG. 5)) ~10 nM.
